Measured values reported in article PMC6385482 (2018).

How the values were obtained:
[1] = system: hpDNA (hairpin DNA, 28 bp as printed) (DNA, hairpin) CGCGAATTCGCGTTTTCGCGAATTCGCG; experiment: fluorescence titration, single-site fit; details: PBS (ion concentrations not given), PBS pH 7.4, room temperature, 1 h
[2] = system: hpDNA (hairpin DNA, 28 bp as printed) (DNA, hairpin) CGCGAATTCGCGTTTTCGCGAATTCGCG; experiment: fluorescence titration, two-site fit with offset; details: PBS (ion concentrations not given); PBS pH 7.4, room temperature, 1 h; 10 nM compound; site 1 of 2

Compound | Kd1 ([1]; 10 nM compound) | also measured
CN1CCN(c2ccc3nc(-c4ccc5nc(-c6ccc(OCCCCNC(=O)c7ccc8c(c7)C(=O)OC87c8ccc(N(C)C)cc8C(C)(C)c8cc(N(C)C)ccc87)cc6)[nH]c5c4)[nH]c3c2)CC1 | 347 ± 22 nM | –
CN1CCN(c2ccc3nc(-c4ccc5nc(-c6ccc(OCCCCNC(=O)c7ccc8c(c7)C7(OC8=O)c8ccc(N(C)C)cc8[Si](C)(C)c8cc(N(C)C)ccc87)cc6)[nH]c5c4)[nH]c3c2)CC1 | 669 ± 26 nM | –
CN1CCN(c2ccc3nc(-c4ccc5nc(-c6ccc(OCCCCNC(=O)c7ccc8c(c7)C7(OC8=O)c8ccc(N(C)C)cc8Oc8cc(N(C)C)ccc87)cc6)[nH]c5c4)[nH]c3c2)CC1 | – | Kd1 [2]: 14 ± 1 nM
CNc1ccc2c(c1)C(C)(C)c1cc(NC)ccc1C21OC(=O)c2ccc(C(=O)NCCCCOc3ccc(-c4nc5ccc(-c6nc7ccc(N8CCN(C)CC8)cc7[nH]6)cc5[nH]4)cc3)cc21 | – | Kd1 [2]: 27 ± 3 nM
CN1CCN(c2ccc3nc(-c4ccc5nc(-c6ccc(OCCCCNC(=O)c7ccc8c(c7)C(=O)OC87c8ccc(N(C)C)c[c]8[Ge]([CH3])([CH3])[c]8cc(N(C)C)ccc87)cc6)[nH]c5c4)[nH]c3c2)CC1 | 4374 ± 192 nM | –
CNc1ccc2c(c1)C(C)(C)c1cc(NC)ccc1C21OC(=O)c2cc(C(=O)NCCCCOc3ccc(-c4nc5ccc(-c6nc7ccc(N8CCN(C)CC8)cc7[nH]6)cc5[nH]4)cc3)ccc21 | 155 ± 14 nM | –
CCOc1ccc(-c2nc3ccc(-c4nc5ccc(N6CCN(C)CC6)cc5[nH]4)cc3[nH]2)cc1 | – | Kd1 ([1]; 4 nM compound): 2.6 ± 0.4 nM
CN1CCN(c2ccc3nc(-c4ccc5nc(-c6ccc(OCCCCNC(=O)c7ccc8c(c7)C7(OC8=O)c8ccc(N(C)C)cc8C(C)(C)c8cc(N(C)C)ccc87)cc6)[nH]c5c4)[nH]c3c2)CC1 | – | Kd1 [2]: 65 ± 7 nM
CN1CCN(c2ccc3nc(-c4ccc5nc(-c6ccc(OCCCCNC(=O)c7ccc8c(c7)C7(OC8=O)c8ccc(N(C)C)c[c]8[Ge]([CH3])([CH3])[c]8cc(N(C)C)ccc87)cc6)[nH]c5c4)[nH]c3c2)CC1 | 572 ± 26 nM | –
CN1CCN(c2ccc3nc(-c4ccc5nc(-c6ccc(OCCCCNC(=O)c7ccc8c(c7)C(=O)OC87c8ccc(N(C)C)cc8Oc8cc(N(C)C)ccc87)cc6)[nH]c5c4)[nH]c3c2)CC1 | 365 ± 12 nM | –
CN1CCN(c2ccc3nc(-c4ccc5nc(-c6ccc(OCCCCNC(=O)c7ccc8c(c7)C(=O)OC87c8ccc(N(C)C)cc8[Si](C)(C)c8cc(N(C)C)ccc87)cc6)[nH]c5c4)[nH]c3c2)CC1 | 4799 ± 201 nM | –
